Measurements published in PubChem BioAssay AID789 (SRMLSC, 2007).
The source made the active and inactive calls. No rule for the calls is given here.

Experiments:
[1] = tested on: S. cerevisiae apl2Δ mutant growth inhibition; test: growth inhibition of apl2Δ yeast, dose response, selectivity assay for post-Golgi transport modulator project, S. cerevisiae, secondary screen, background strain comparison (AID 789)
[2] = as above; conditions: S. cerevisiae background (wild-type parent) strain growth inhibition

SMILES | IC50 [1] | IC50 [2] [µM]
O=C1OCC(CO)(CO)N=C1NNc1ccc(Cl)c(Cl)c1 | 4.53 µM (inactive) | 3.35
O=C(NCc1ccccc1)NS(=O)(=O)c1ccccc1Cl | > 10 µM (inactive) | > 10
COc1ccc(Nc2nc(N)nc(CSc3nnc(N)s3)n2)cc1 | > 10 µM (inactive) | > 10
CCOC(=O)C1=C(N)N2C(=O)C(C)SC2=C(C(=O)OC)C1c1ccccc1OC (stereo unspecified) | 9.99 µM (inactive) | 0.163
Cc1ccc(C(=O)NCc2occc2C(=O)O)o1 | > 10 µM (inactive) | > 10
O=C(NCCSCc1ccc(Cl)cc1Cl)c1ccc(CN2CCOCC2)cc1 | > 10 µM (inactive) | > 10
O=C(Cn1ncc2c3ccccc3n(Cc3ccccc3F)c2c1=O)N1CCC2(CC1)OCCO2 | > 10 µM (inactive) | > 10
C/C(=N\N=C(/N)SC1CC(=O)N(c2ccc(Cl)c(Cl)c2)C1=O)c1cccs1 (stereo unspecified) | > 10 µM (inactive) | 5.98
CCOc1cc(/C=C\[N+](=O)[O-])ccc1OCC(=O)Nc1ccccc1C | > 10 µM (inactive) | > 10
C=C(C)C1CC=C(CN2CC(C)OC(C)C2)CC1 (stereo unspecified) | > 10 µM (inactive) | > 10
Cc1cc([N+](=O)[O-])c(-c2ccc(/C=N/n3cnnc3)o2)cc1Cl | 0.526 µM (inactive) | 0.134
Cc1ccc(C)c(C(=O)NCc2ccncc2)c1 | > 10 µM (inactive) | > 10
O=C(COc1ccc(Br)cc1F)NC1CCN(Cc2ccccc2)CC1 | > 10 µM (inactive) | > 10
CCN(CC)CCCN(Cc1cc2cc3c(cc2[nH]c1=O)OCCO3)C(=O)Nc1ccc(F)cc1 | > 10 µM (inactive) | > 10
Cn1c2ccc(Cl)cc2c2nc3ccccc3nc21 | > 10 µM (inactive) | > 10
CC1CCCCC1NC(=O)CSc1nnnn1-c1ccccc1 (stereo unspecified) | > 10 µM (inactive) | > 10
O=C(OCn1ncc(Cl)c(Cl)c1=O)c1ccc(C(F)(F)F)cc1 | > 10 µM (inactive) | > 10
Cc1cc(O)c(/C=N/Nc2ccc(Cl)cc2)c(=O)o1 | 9.39 µM (inactive) | 4.69
Cn1c(=O)cc(NCc2ccccc2)[nH]c1=O | > 10 µM (inactive) | > 10
Cc1sc(NC(=O)c2ccco2)c(C(c2cccnc2)N2CCC(C)CC2)c1C (stereo unspecified) | 13.9 µM (inactive) | 5.77
CCCC(=O)Nc1ccc(Cl)c(NC(=O)c2cccnc2Cl)c1 | > 10 µM (inactive) | > 10

SMILES | IC50 [1] | IC50 [2] [µM]
CC1CCCCN1CCNC(=O)Cn1nc(-c2ccccc2)ccc1=O (stereo unspecified) | > 10 µM (inactive) | > 10
CCCCS(=O)(=O)/C=C\C=C/S(=O)(=O)CCCC | 19.8 µM (inactive) | 13.9
O=C(NC1CCCC1)C(c1ccsc1)N(C(=O)Cc1cccs1)c1ccc(F)cc1 (stereo unspecified) | > 10 µM (inactive) | > 10
Cc1ccc(/C=N/n2cnc3sc(-c4ccccc4)cc3c2=O)o1 | > 10 µM (inactive) | > 10
CC(C)Oc1ccc(/C(O)=C2/C(=O)C(=O)N(CCN(C)C)C2c2ccco2)cc1 (stereo unspecified) | > 10 µM (inactive) | > 10
CCOC(=O)c1c(NC(=O)CN2CCCCC2)sc2c1CCC(C=O)=C2Cl | > 10 µM (inactive) | > 10
COc1ccc2nc(NCCCNC(=O)c3cc(OC)c(OC)c(OC)c3)c(C#N)cc2c1 | > 10 µM (inactive) | > 10
Cc1ccc(S(=O)(=O)N2CC3CC(C2)c2cccc(=O)n2C3)cc1 (stereo unspecified) | > 10 µM (inactive) | > 10
Cc1c(Cc2ccccc2)c(=O)oc2c(C)c(OCc3nn[nH]n3)ccc12 | > 10 µM (inactive) | > 10
Cc1cccc(N2CCN(CC(=O)Nc3nccs3)CC2)c1C | > 10 µM (inactive) | > 10
Cc1cccc(OCC(=O)O/N=C(\N)Cc2ccc(Cl)cc2)c1 | > 10 µM (inactive) | 10.4
CCN(CC)CCn1nc(C)nc1-c1ccccc1O | > 10 µM (inactive) | > 10
O=C1c2cccc3c([N+](=O)[O-])ccc(c23)C(=O)N1c1ccc(Cl)cn1 | 14.5 µM (inactive) | 6.08
Cc1cccc(-c2c3c(=O)n(C)c(=O)n(C)c3cn2C2CCCCC2)c1 | > 10 µM (inactive) | > 10
Cc1ccc(SC(C)C(=O)Nc2ncn[nH]2)cc1 (stereo unspecified) | > 10 µM (inactive) | > 10
O=S(=O)(NCC(c1cccnc1)N1CCN(c2ccccc2)CC1)c1cccs1 (stereo unspecified) | > 10 µM (inactive) | > 10
O=C(Nc1nnc(-c2ccc(Cl)cc2)o1)c1ccccc1Br | > 10 µM (inactive) | 13.1
O=C(Nc1cc(C(F)(F)F)ccc1-n1cncn1)c1ccc(-c2ccccc2)cc1 | > 10 µM (inactive) | > 10
CS(=O)(=O)N1CCC(C(=O)NCCN2CCN(Cc3ccccc3)CC2)CC1 | > 10 µM (inactive) | > 10
O=C(COc1ccc(Cl)cc1Cl)NCCCN1CCOCC1 | > 10 µM (inactive) | > 10
CCOC(=O)c1cccnc1SCc1cc(=O)n2ccccc2n1 | > 10 µM (inactive) | > 10

SMILES | IC50 [1] | IC50 [2] [µM]
Nc1ccc(Oc2ccc3nc(-c4ccccc4)c(-c4ccccc4)nc3c2)cc1 | 2 µM (inactive) | 1.21
O=C(NCc1ccco1)C(c1cccs1)N(C(=O)Cc1cccs1)c1ccccc1 (stereo unspecified) | > 10 µM (inactive) | > 10
O=C1OCC2=C1C(c1ccc(F)cc1)Sc1ccccc1N2 (stereo unspecified) | > 10 µM (inactive) | > 10
CCc1ccc(C(=O)/C=C/c2ccc([N+](=O)[O-])o2)cc1 | > 10 µM (inactive) | 20.7
CCOCCCNC(=O)c1cc2sc(Cl)cc2n1CC | > 10 µM (inactive) | > 10
CCCC(=O)N1CCN(c2ccc(NC(=O)c3cc4ccccc4o3)cc2Cl)CC1 | 12.5 µM | 19.2
CC(=O)c1cnc2nc(C)nn2c1C | > 10 µM (inactive) | > 10
O=C(NC(C(=O)c1ccccc1)N1CCCCC1)c1ccccc1 (stereo unspecified) | > 10 µM (inactive) | > 10
CCOc1cccc(C(=O)Nc2cccnc2)c1 | > 10 µM (inactive) | > 10
O=C1NC2(Nc3ccccc31)C(=O)Nc1ccccc12 (stereo unspecified) | > 10 µM (inactive) | > 10
CCOC(=O)Cn1cc(C=O)c2ccccc21 | > 10 µM (inactive) | > 10
COc1ccc2oc(=O)c(-c3nnc(NCc4ccco4)s3)cc2c1 | > 10 µM (inactive) | > 10
Fc1ccc(Cn2nnc(-c3ccc(CN4CCOCC4)cc3)n2)cc1 | > 10 µM (inactive) | > 10
COc1cccc(OCCCCN2CC(C)OC(C)C2)c1 (stereo unspecified) | > 10 µM (inactive) | > 10
FC(F)(F)COc1nc(N2CCCCC2)nc(N2CCNCC2)n1 | > 10 µM (inactive) | > 10
Cc1ccc(-c2csc3nnc(SCC(=O)Nc4cccc(C)n4)n23)cc1 | > 10 µM (inactive) | > 10
CCN1CCN(c2c(Cl)cccc2NC(=O)c2ccc(Br)o2)CC1 | > 10 µM (inactive) | > 10
CC1CC(C)CN(CCOc2ccc(Cl)cc2Cl)C1 (stereo unspecified) | > 10 µM (inactive) | > 10
Cc1ccc(S(=O)(=O)N(CC(=O)N2CCC(C(N)=O)CC2)c2cccc(C(F)(F)F)c2)cc1 | > 10 µM (inactive) | > 10
CCN1C(=O)c2ccc(C(=O)NCc3ccccc3)cc2C1=O | > 10 µM (inactive) | > 10
CN1/C(=C/C2CC(=O)NC2=O)C(C)(C)c2ccccc21 (stereo unspecified) | > 10 µM (inactive) | > 10

SMILES | IC50 [1] | IC50 [2] [µM]
Fc1ccc(-c2noc(C3CCN(Cc4cccnc4)CC3)n2)cc1 | > 10 µM (inactive) | > 10
COCCNc1cc(C)nc2c3c(C)cc(C)nc3nn12 | > 10 µM (inactive) | > 10
COc1ccc(NC(=O)c2ccc(CN3CCN(c4ccccc4)CC3)cc2)cc1 | > 10 µM (inactive) | > 10
CSc1ncccc1C(=O)OCC(=O)N1CCOCC1 | > 10 µM (inactive) | > 10
CC1CCCN(CCOCCOc2ccc(Cl)cc2Br)C1 (stereo unspecified) | 21.7 µM | > 10
O=C(Nc1cccc(Cl)c1)N1CCN(C/C=C/c2ccccc2)CC1 | > 10 µM (inactive) | > 10
Cc1ccc(C2(C(F)(F)F)N=C3Sc4cc(C)cc(C)c4N3C(=O)N2)cc1 (stereo unspecified) | 1.73 µM (inactive) | 1.08
Cc1ccc(C)c(NS(=O)(=O)c2cc(C(=O)N3CCc4ccccc4C3)ccc2Cl)c1 | 5.74 µM | 6.88
CCOCCCNC(=O)C1CCN(C(=O)N(C)C)CC1 | > 10 µM (inactive) | > 10
O=C(O)c1ccc(N2CCCCC2)cc1 | > 10 µM (inactive) | > 10
Cc1ccc(N2CCN(S(=O)(=O)N3CCCCCC3)CC2)cc1Cl | > 10 µM (inactive) | > 10
O=c1c2cccc3c2c(nn1CN1CCOCC1)-c1ccccc1-3 | > 10 µM (inactive) | > 10
Nc1cc(N)c(OCC(F)(F)F)cc1OCC(F)(F)F | > 10 µM (inactive) | > 10
Cc1cc(C)nc(N/N=C/C(Cl)=C/c2ccccc2)n1 | > 10 µM (inactive) | > 10
C=C(C)C1CC=C(CN2CCC(C(=O)OCC)CC2)CC1 (stereo unspecified) | > 10 µM (inactive) | > 10
CN1CCN(CCCNC(=O)Cn2nc(-c3ccccc3)ccc2=O)CC1 | > 10 µM (inactive) | > 10
Cc1ccc(C(=O)c2c(NC(=O)c3ccncc3)sc3c2CCCC3)cc1 | > 10 µM (inactive) | > 10
O=C(O)Cn1c(SCCOc2ccccc2F)nc2ccccc21 | > 10 µM (inactive) | > 10
Cc1ccc(C(C)C)c(OCCCN2CC(C)OC(C)C2)c1 (stereo unspecified) | > 10 µM (inactive) | > 10
COc1ccccc1N1CCN(CC(O)c2ccc3cc[nH]c3c2)CC1 (stereo unspecified) | > 10 µM (inactive) | > 10
